The text below walks through data of PMC9398180 (Molecular Cancer Therapeutics, 2021).

One data set has as its target mouse LMP7 (Mus musculus, UniProt O09061+P28063). Briefly: Cellular LMP7 activity in mouse P3X63Ag8.653 cells. Type of data set: cell-based.
The target of data set [1] is immunoproteasome subunit MECL-1 (Homo sapiens, UniProt P40306+P49720). Nature of the data set: Cell-free proteasome subunit peptide cleavage assay, MECL-1. Type of data set: biochemical.
In the next data set the test system is primary human cells. Briefly: BioMAP Diversity PLUS Panel for Broad Phenotypic Profiling. Type of data set: cell-based.
Data set [2] concerns the target immunoproteasome subunit LMP2 (Homo sapiens, UniProt P28065+P40306). Briefly: Cell-free proteasome subunit peptide cleavage assay, LMP2. Type of data set: biochemical.
The target of data set [3] is constitutive proteasome subunit β1 (Homo sapiens, UniProt P28072+Q99436). Nature of the data set: Cell-free proteasome subunit peptide cleavage assay, β1. Format: biochemical.
The target of data set [4] is constitutive proteasome subunit β2 (Homo sapiens, UniProt P49720+Q99436). Briefly: Cell-free proteasome subunit peptide cleavage assay, β2. Format: biochemical.

For the compound `CC(C)C[C@H](NC(=O)[C@H](Cc1ccccc1)NC(=O)c1cnccn1)B(O)O` [Bortezomib], at mouse LMP7, the midpoint of inhibition, the IC50, lay at 5.3 nM.

`CC(C)C[C@H](NC(=O)CNC(=O)c1cc(Cl)ccc1Cl)B(O)O` [Ixazomib]: the IC50 (commonly the midpoint of a concentration-inhibition curve) is 5470 nM in data set [1], 0.9 ± 0.2 nM in data set [2], 28 ± 22 nM in data set [3] and above 30000 nM in data set [4]. In the data set on primary human cells (33 nmol/L), the “cytotoxicity toward primary human B cells, PBMCs, mononuclear cells, and venular endothelial cells” value is listed as “cytotoxic”. For the same compound, in the data set on primary human cells (non-cytotoxic concentration of 11 nmol/L), the “proliferation of primary human coronary artery smooth muscle cells, endothelial cells, fibroblasts, and T cells” value is on record as “reduced proliferation”.
